Values quoted from earlier work in US8053446B2, “Cyanoguanidine compounds” (Leo Pharma A/S, priority 2004, dated 2011).

Assays:
human tumour cells = settings: nude mice transplanted with human tumour cells; also against tumour cells resistant to conventional anticancer drugs such as paclitaxel
[1] = tested on: normal human endothelial cells

N#CNC(=Nc1ccncc1)NCCCCCCOc1ccc(Cl)cc1 [N-(6-(4-chlorophenoxy)hexyl)-N′-cyano-N″-(4-pyridyl)guanidine]
antitumour activity (human tumour cells): substantial antitumour activity
antiproliferative activity [1]: considerably less antiproliferative activity
